Where a name gives a salt, the structure may show the parent alone.
target: T1, human IRAK4 kinase domain (aa 154-460) (Homo sapiens, UniProt Q9NWZ3); experiment: IRAK4 Enzymatic DELFIA Assay; format: biochemical; settings: 0.6 mM ATP (KM); 114 pM IRAK4 kinase domain; 200 nM substrate; 5% DMSO
T1 construct: human IRAK4 kinase domain (aa 154-460; GenBank ID AF445802)
T1 sequence (Q9NWZ3 154-460): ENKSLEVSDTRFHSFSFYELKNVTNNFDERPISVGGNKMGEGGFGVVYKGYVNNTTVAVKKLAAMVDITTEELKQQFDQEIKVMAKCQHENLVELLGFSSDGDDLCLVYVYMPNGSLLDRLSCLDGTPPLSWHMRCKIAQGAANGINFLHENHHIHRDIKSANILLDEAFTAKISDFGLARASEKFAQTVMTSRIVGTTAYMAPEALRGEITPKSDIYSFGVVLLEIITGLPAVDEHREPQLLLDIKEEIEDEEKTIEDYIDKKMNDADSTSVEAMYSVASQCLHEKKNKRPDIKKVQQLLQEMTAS
Method: IRAK4 Enzymatic DELFIA Assay.
This is an in vitro assay to measure IRAK4 enzymatic activity utilizing the DELFIA (Dissociation-Enhanced Lanthanide Fluorescent Immunoassay, Perkin-Elmer) platform, with the human IRAK4 kinase domain (aa 154-460) construct to characterize IRAK4 inhibitor and control compounds at 0.6 mM ATP (KM). The final amount of enzyme in the assay is 114 pM IRAK4 kinase domain, final concentration of substrate is 200 nM, and final concentration of DMSO is 5%.
The test compound was solubilized in DMSO to a stock concentration of 30 mM. The dose response plates were prepared with a 2 mM primary compound concentration, and then diluted in DMSO in a four-fold series for a total of 10 data points. Compounds were prepared as a 20-fold multiple of the final in-assay concentration
To begin the assay, 45 μL of reaction mixture containing 20 mM HEPES pH=7.5, 5 mM MgCl2, 0.0025% Brij-35, […], 228 pM phosphorylated recombinant human IRAK4 kinase domain (aa 154-460; GenBank ID AF445802) were aliquoted into Ultra-Clear Polypropylene, 96-well, U-Bottom Plates (Corning Life Sciences). 5 μL of test compound from the dose-response plate was added to the reaction mixture and incubated for 15 minutes at room temperature. Then 50 μL of 20 mM HEPES pH=7.5, 5 mM MgCl2, 0.0025% Brij-35, 600 μM ATP, and 400 nM ERM-biotinylated peptide (AGAGRDKYKTLRQIR) were added to start the reaction. The reaction was incubated for 90 minutes at room temperature and stopped by the addition of 25 μL 0.5M EDTA.
100 μL of the reaction mixture was transferred to a streptavidin coated detection plate (EvenCoat Streptavidin Coated Plates, 96-Well, R&D Systems) and incubated for 30 minutes at room temperature. The plates were washed 4 times with 100 μL per well of PBS containing 0.05% Tween-20. Plates were then incubated with 50 μL per well of antibody cocktail of Anti-pERM antibody (Cell Signaling Technology) diluted 1:5000, plus Anti-Rabbit IgG EuN1 at 0.242 μg/ml (Perkin-Elmer Life Sciences) in a solution of 10 mM MOPS pH=7.5, 150 mM NaCl, 0.05% Tween-20, 0.02% NaN3, 1% BSA, 0.1% Gelatin for 45 minutes. The plates were washed 4× with 100 μL per well of PBS containing 0.05% Tween-20. Then 100 μL per well of DELFIA Enhancement Solution were added to the plate and then read on an EnVision Model 2103 using a 340 nm excitation wavelength and a 665 nm emission detection.

| IC50 | SMILES |
| --- | --- |
| 514 nM | CC(C)Oc1cc2c(OC3CCN(C(=O)CC#N)CC3)nccc2cc1C(N)=O [Example 50, 1-{[1-(cyanoacetyl)piperidin-4-yl]oxy}-7-(propan-2-yloxy)isoquinoline-6-carboxamide] |
| 428 nM | COc1cc2c(O[C@@H]3CCCNC3)ccnc2cc1C(N)=O [Example 22, 6-methoxy-4-[(3R)-piperidin-3-yloxy]quinoline-7-carboxamide hydrochloride] |
| 65 nM | CC(C)Oc1cc2c(O[C@H]3CN(C(=O)CC#N)CC[C@@H]3C)ccnc2cc1C(N)=O [Example 52, 4-{[(3R,4S)-1-(cyanoacetyl)-4-methylpiperidin-3-yl]oxy}-6-(propan-2-yloxy)quinoline-7-carboxamide] |
| 308 nM | CC(C)Oc1cc2c(O[C@H]3CCN(C(=O)CC#N)C[C@H]3F)nccc2cc1C(N)=O [Example 3, 1-{[(3R,4S)-1-(cyanoacetyl)-3-fluoropiperidin-4-yl]oxy}-7-(propan-2-yloxy)isoquinoline-6-carboxamide formate] |
| 35 nM | CCOc1cc2c(O[C@@H]3CCCN(C(=O)CC#N)C3)ccnc2cc1C(N)=O [Example 32, 4-{[(3R)-1-(cyanoacetyl)piperidin-3-yl]oxy}-6-ethoxyquinoline-7-carboxamide] |
| 388 nM | Cc1cc(O[C@@H]2CCCN(C(=O)CO)C2)c2cc(OC(C)C)c(C(N)=O)cc2n1 [Example 42, 4-{[(3R)-1-(hydroxyacetyl)piperidin-3-yl]oxy}-2-methyl-6-(propan-2-yloxy)quinoline-7-carboxamide] |
| 1590 nM | CC(C)Oc1cc2c(O[C@@H]3CCCNC3)ncc(C#N)c2cc1C(N)=O [Example 73, 4-cyano-1-[(3R)-piperidin-3-yloxy]-7-(propan-2-yloxy)isoquinoline-6-carboxamide] |
| 168 nM | COCC(=O)N1CCC[C@@H](Oc2ccnc3cc(C(N)=O)c(OC(C)C)cc23)C1 [Example 8, 4-{[(3R)-1-(methoxyacetyl)piperidin-3-yl]oxy}-6-(propan-2-yloxy)quinoline-7-carboxamide formate] |
| 999 nM | CC(C)Oc1cc2c(O[C@@H]3CCCN(C(=O)C4(CN)CC4)C3)ccnc2cc1C(N)=O [Example 15, 4-{[(3R)-1-{[1-(aminomethyl)cyclopropyl]carbonyl}piperidin-3-yl]oxy}-6-(propan-2-yloxy)quinoline-7-carboxamide formate] |
| 66 nM | CC(C)Oc1cc2c(O[C@@H]3CCN(C(=O)CC#N)C3)nccc2cc1C(N)=O [Example 2, 1-{[(3R)-1-(cyanoacetyl)pyrrolidin-3-yl]oxy}-7-(propan-2-yloxy)isoquinoline-6-carboxamide formate] |
| 184 nM | CC(C)Oc1cc2c(OC3CCNCC3)ccnc2cc1C(N)=O [Example 25, 4-(piperidin-4-yloxy)-6-(propan-2-yloxy)quinoline-7-carboxamide] |
| 560 nM | CC(C)Oc1cc2c(O[C@@H]3CCCN(C(=O)c4cnco4)C3)ccnc2cc1C(N)=O [Example 11, 4-{[(3R)-1-(1,3-oxazol-5-ylcarbonyl)piperidin-3-yl]oxy}-6-(propan-2-yloxy)quinoline-7-carboxamide formate] |
| 3080 nM | CC(C)Oc1cc2c(O[C@H]3CCCNC3)nccc2cc1C(N)=O [Example 75, 1-[(3S)-piperidin-3-yloxy]-7-(propan-2-yloxy)isoquinoline-6-carboxamide] |
| 288 nM | Cc1cnc(O[C@@H]2CCCNC2)c2cc(OC(C)C)c(C(N)=O)cc12 [Example 56, 4-methyl-1-[(3R)-piperidin-3-yloxy]-7-(propan-2-yloxy)isoquinoline-6-carboxamide hydrochloride] |
| 506 nM | CCC(=O)N1CCC[C@@H](Oc2ccnc3cc(C(N)=O)c(OC(C)C)cc23)C1 [Example 10, 4-{[(3R)-1-propanoylpiperidin-3-yl]oxy}-6-(propan-2-yloxy)quinoline-7-carboxamide formate] |
| 591 nM | CC(C)Oc1cc2c(O[C@@H]3CCCNC3)ncc(Br)c2cc1C(N)=O [Example 54, 4-bromo-1-[(3R)-piperidin-3-yloxy]-7-(propan-2-yloxy)isoquinoline-6-carboxamide hydrochloride] |

| IC50 | SMILES |
| --- | --- |
| 254 nM | CC(C)Oc1cc2c(OC3CCCN(S(C)(=O)=O)C3)ccnc2cc1C(N)=O (stereo not shown) [Example 45, 4-{[1-(methylsulfonyl)piperidin-3-yl]oxy}-6-(propan-2-yloxy)quinoline-7-carboxamide] |
| 856 nM | CC(C)Oc1cc2c(O[C@@H]3CCCN(C(=O)c4c[nH]cn4)C3)ccnc2cc1C(N)=O [Example 14, 4-{[(3R)-1-(1H-imidazol-4-ylcarbonyl)piperidin-3-yl]oxy}-6-(propan-2-yloxy)quinoline-7-carboxamide formate] |
| 38 nM | CC(C)Oc1cc2c(O[C@@H]3[C@@H]4CC=C[C@H]3NC4=O)nccc2cc1C(N)=O [Example 66, 1-{[(1S,5R,8R)-7-oxo-6-azabicyclo[3.2.1]oct-3-en-8-yl]oxy}-7-(propan-2-yloxy)isoquinoline-6-carboxamide] |
| 40 nM | CC(C)Oc1cc2c(OC3CCCNC3)cccc2cc1C(N)=O (stereo not shown) [Example 57, 3-isopropoxy-5-(piperidin-3-yloxy)-2-naphthamide hydrochloride] |
| 626 nM | CC(C)Oc1cc2c(O[C@@H]3CCCN(C(=O)C(C)(N)CO)C3)ccnc2cc1C(N)=O (mixture of isomers) [Example 12, Racemic-4-{[(3R)-1-(2-amino-3-hydroxy-2-methylpropanoyl)piperidin-3-yl]oxy}-6-(propan-2-yloxy)quinoline-7-carboxamide formate] |
| 150 nM | CC(C)Oc1cc2c(O[C@@H]3CCNC[C@@H]3F)ccnc2cc1C(N)=O [Example 20, 1-{[(3S.4R)-3-fluoropiperidin-4-yl]oxy}-7-(propan-2-yloxy)isoquinoline-6-carboxamide] |
| 151 nM | NC(=O)c1cc2nccc(O[C@@H]3CCCNC3)c2cc1OC1CCC1 [Example 23, 6-(cyclobutyloxy)-4-[(3R)-piperidin-3-yloxy]quinoline-7-carboxamide] |
| 642 nM | CC(C)Oc1cc2c(OC3CCNC3=O)ccnc2cc1C(N)=O (stereo not shown) [Example 27, 4-[(2-oxopyrrolidin-3-yl)oxy]-6-(propan-2-yloxy)quinoline-7-carboxamide] |
| 1230 nM | CC(C)Oc1cc2c(O[C@@H]3CCNC3)ccnc2cc1C(N)=O [Example 77, 6-(propan-2-yloxy)-4-[(3R)-pyrrolidin-3-yloxy]quinoline-7-carboxamide] |
| 39 nM | CC(C)Oc1cc2c(O[C@@H]3CCNC[C@H]3F)nccc2cc1C(N)=O [Example 19, 1-{[(3R,4R)-3-fluoropiperidin-4-yl]oxy}-7-(propan-2-yloxy)isoquinoline-6-carboxamide] |
| 40 nM | CC(C)Oc1cc2c(O[C@@H]3CCCN(C(=O)CC#N)C3)ncc(Cl)c2cc1C(N)=O [Example 37, 4-chloro-1-{[(3R)-1-(cyanoacetyl)piperidin-3-yl]oxy}-7-(propan-2-yloxy)isoquinoline-6-carboxamide] |
| 1320 nM | CC(C)Oc1cc2c(O[C@H]3C[C@H]4CC[C@@H](C3)N4)nccc2cc1C(N)=O [Example 80, 1-[(3-endo)-8-azabicyclo[3.2.1]oct-3-yloxy]-7-(propan-2-yloxy)isoquinoline-6-carboxamide] |
| 266 nM | CC(C)Oc1cc2c(O[C@@H]3CCCN(C(=O)CCC#N)C3)ccnc2cc1C(N)=O [Example 35] |
| 43 nM | CC(C)Oc1cc2c(O[C@@H]3CCCNC3)nccc2cc1C(N)=O [Example 53, 1-[(3R)-piperidin-3-yloxy]-7-(propan-2-yloxy)isoquinoline-6-carboxamide hydrochloride] |
| 5 nM | CC(C)Oc1cc2c(O[C@@H]3CCCN(C(=O)CC#N)C3)nccc2cc1C(N)=O [Example 36, 1-{[(3R)-1-(cyanoacetyl)piperidin-3-yl]oxy}-7-(propan-2-yloxy)isoquinoline-6-carboxamide] |

— US20180230127A1 (PFIZER INC., priority 2015, published 2018)
